The values below come from publication PMC8709388, “In Search of Small Molecules That Selectively Inhibit MBOAT4” (Molecules, 2021).

Like-named read-outs stand apart in the source and are kept apart here. Where only a bound is given, the exact number is not on record here.

One series concerns GOAT. The following applies: read-out: lit. IC50, cited from earlier work.
For the next series, the system named is ghrelin production. Also on record: method as in earlier work. The following applies: cited from earlier work.
Series [1] has as its system acyl ghrelin secretion from INS-1 cells (INS/GOAT/GHRL cell line). Description: INS-1 cellular assay: secreted acyl-ghrelin from INS/GOAT/GHRL cell line measured with ELISA. In kind it is cell-based, mouse. The following applies: for IC50: INS1, acyl-ghrelin secretion, read-out: in-house INS-1 IC50; for activity in cell culture (in words): acyl ghrelin secretion. The source says: Generation of Recombinant Retrovirus for mGOAT Expression. The mouse GOAT cDNA with C-terminal HA tag was amplified from pcDNA3.1-mouseGOAT-HA vector (gift from Brown and Goldstein lab) using the following primers: mGOAT_attb1 (forward primer) 5′-[…]—3′(attb1 recombination site is in italics, 5′ of mGOAT coding sequence is in bold, and Kozak coding sequence is underlined) and mGOAT_attb2 (reverse primer) 5′-[…] -3′ (attb2 recombination site is in italics, 3′ of mGAOT-HA coding sequence is in bold, and stop codon is underlined). The PCR product was cloned into donor vector pDONR221 (ThermoFisher) with BP clonase according to manufacturer’s instructions. Positive clones were verified by DNA sequencing with M13F and M13R primers. The resulting entry plasmid pDONR221-mGOAT-HA was used to transfer mGOAT-HA cDNA to destination vector pBabe-puro (Addgene cat# 51070 [35]) using LR clonase according to manufacturer’s instructions. Positive clones were verified by DNA sequencing with pBABE-5 and pBABE-3 primers. The resulting plasmid, pBabe-puro-mGOAT-HA, was used to generate retrovirus. The retrovirus was packed in 293T PhoE (Phoenix-ECO AT0CC® CRL-3214™) cells and used to infect INS-1 cells. The stable INS/GOAT cells were selecting on 1 μg/mL puromycin and GOAT expression was confirmed with immunoblot of membrane fraction isolated from antibiotic resistant culture using anti-HA antibody.
Generation of Lentivirus for Expression of Ghrelin. The cDNA for mouse preproghrelin was subcloned from pcDNA3.1-preproghrelin (gift from Brown and Goldstein lab) into pULTRA vector (Addgene cat# 24129 [36]) with XbaI and BamHI restriction enzymes. Using of these restriction sites for cloning will result in the creation of bi-cistronic expression of ghrelin along with EGFP to facilitate identification of positive cells by fluorescence. The above restriction sites were engineered via PCR reaction using the following primers: ghrl_pultra_forw 5′-[…]-3′ (5′ of preproghrelin coding sequence is in bold; XbaI site is in italics) and ghrl_pultra_rev 5′-[…] -3′ (3′ of preproghrelin coding sequence is in bold, stop codon is underlined, and BamHI site is italics). The recombinant lentivirus encoding preproghrelin cDNA was packed in Lenti-X 293T cells (Takara cat# 632180) by co-transfection of pUltra-EGFP-mouse-preproghrelin, with packaging encoding plasmid pCMV ΔR8.2 (Addgene cat# 12263) and envelope encoding plasmid pCMV-VSV g (Addgene cat# 8454). The INS/GOAT cells were infected with recombinant lentivirus to generate INS/GOAT/GHRL cell line. After few passages, the population of cells with puromycin resistance and ~90% fluorescence was saved for cell-based assay.
Cellular assay. INS/GOAT/GHRL cell line was routinely cultured in RPMI medium supplemented with 10% FBS, 1% Pen/Strep, 10 mM HEPES pH 7.2 and 50 μM 2-mercaptoethanol. Day 0: One 10 cm dish at full confluency was used to seed one 96-well plate. Day 1: Growth media was removed and cells were washed with PBS prior to adding fresh growth media as above but without 2-mercaptoethanol. The serial dilutions of tested compound at 50× concentration were prepared in vehicle containing growth media without 2-mercaptoethnol supplemented with 6% DMSO and were added to cells in duplicates. Day 2: 10 μL of growth media were removed from each well and amount of secreted acyl-ghrelin was measured with ELISA (Cayman cat# 10006307).
Background: ELISA stands for enzyme-linked immunosorbent assay.

One may read the IC50 as the concentration needed to halve the response being measured. For `Cc1nc(Cl)nc(N)c1CCC1CCN(C(=O)[C@H](C)NC(=O)c2ccnn2C)CC1` [compound 5], in the series on GOAT (Eli Lilly compound), the IC50 is 57 nM. For the same compound, the adverse side effects entry with ghrelin production (at doses that inhibited ghrelin production) was “did not cause observable adverse side effects”. For the same compound, in the series on ghrelin production, the “ghrelin production in vivo” value is given as “inhibited ghrelin production in vivo” and the oral bioavailability entry is given as “orally bioavailable”. In addition, the IC50 in series [1] is 670 nM.
`CNC(=O)c1cccc(Cc2c(C)nc3nonc3c2N)n1` [compound 6, reference compound]: the values for the IC50 (with GOAT (Boehringer Ingelheim compound); in series [1]) were 0.24 nM and 540 nM, respectively.
With `Cc1nc2nonc2c(N)c1CCC1CCN(C(=O)[C@H](C)NC(=O)c2ccnn2C)CC1` [compound 11, (S)-N-(1-(4-(2-(7-amino-5-methyl-[1,2,5]oxadiazolo[3,4-b]pyridin-6-yl)ethyl)pip-eridin-1-yl)-1-oxopropan-2-yl)-1-methyl-1H-pyrazole-5-carboxamide], in series [1], the “potency of blocking ghrelin secretion from INS-1 cells relative to 5” value is reported as 4 fold, the IC50 came out at 160 nM and the “activity in cell culture (in words)” value is “most potent compound we have tested in our cellular assay”.
In the case of `CCCCOCC(=O)N1CCC(CCc2c(C)nc3nonc3c2N)CC1` [compound 10, 1-(4-(2-(7-amino-5-methyl-[1,2,5]oxadiazolo[3,4-b]pyridin-6-yl)ethyl)piperidin-1-yl)-2-butoxyethan-1-one], in series [1], the IC50 is above 6600 nM and the “activity in cell culture (in words)” value is given as “much less active in cells”.
